Consider four compounds from ChEMBL document CHEMBL6121027, “Novel Bicyclic Heterocyclic Compounds as CD73 Inhibitors for Treating Cancer” (ACS Med Chem Lett, 2025).

In this assay the target is 5'-nucleotidase (Homo sapiens, UniProt P21589). The assay is described as follows: Inhibition of recombinant human CD73 preincubated for 15 mins followed by AMP addition measured after 10 mins by LC/MS analysis.
Sequence of 5'-nucleotidase (P21589 whole entry): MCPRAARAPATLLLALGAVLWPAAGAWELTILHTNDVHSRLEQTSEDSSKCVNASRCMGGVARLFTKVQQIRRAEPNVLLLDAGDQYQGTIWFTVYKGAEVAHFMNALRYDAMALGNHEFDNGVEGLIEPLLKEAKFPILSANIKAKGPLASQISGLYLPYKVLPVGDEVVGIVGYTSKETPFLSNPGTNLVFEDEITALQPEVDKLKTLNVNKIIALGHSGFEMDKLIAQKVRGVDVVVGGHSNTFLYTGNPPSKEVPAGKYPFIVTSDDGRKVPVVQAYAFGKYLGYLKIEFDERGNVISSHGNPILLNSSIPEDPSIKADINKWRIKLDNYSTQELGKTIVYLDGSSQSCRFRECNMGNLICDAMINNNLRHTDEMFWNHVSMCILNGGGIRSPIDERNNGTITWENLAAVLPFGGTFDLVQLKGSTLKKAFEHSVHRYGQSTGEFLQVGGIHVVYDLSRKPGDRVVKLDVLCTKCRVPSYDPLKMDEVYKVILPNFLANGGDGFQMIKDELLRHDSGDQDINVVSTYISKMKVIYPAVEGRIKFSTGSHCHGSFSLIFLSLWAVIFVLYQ

A word on the IC50: it is the concentration that inhibits the measured activity by half. Take `Cn1nc(O[C@H](c2ccnc(OCC(C)(F)F)c2)C(F)F)c2cc(-c3n[nH]c(=O)[nH]c3=O)nnc21`: the IC50 was 40 pM.

Turning to `COCCOc1cc([C@@H](Oc2nn(C)c3nnc(-c4n[nH]c(=O)[nH]c4=O)cc23)C(F)F)ccn1`, the IC50 was determined as 50 pM.

For `C[C@@H](Nc1cc([C@@H](Oc2nn(C)c3nnc(-c4n[nH]c(=O)[nH]c4=O)cc23)C(F)F)ccn1)C(F)(F)F`, the concentration for half-maximal inhibition (IC50) stood at 40 pM.

Consider `C[C@H](Nc1cc([C@@H](Oc2nn(C)c3nnc(-c4n[nH]c(=O)[nH]c4=O)cc23)C(F)F)ccn1)C(F)(F)F`, for which the IC50 worked out at 40 pM.
